Here are results for ten molecules from patent US9457106B2, “Cancer therapy” (priority 2011, dated 2016).

Read-outs that look alike come from different tables or passages of the source.

For series [1] the following is noted: cited from earlier work; for Maximum particle energy: beta particles.
For series [2] the following is noted: for Formation of a precipitate: 1 mL calcium chloride solution (50 mM) added to 10 mL of 100 mM phosphate solution.

As for `[103Pd]` [palladium-103], in series [1] (electron capture emitters), the Half-life is given as 17 days and the Particle energy was 0.05 MeV.

`[90Y]` [yttrium-90]: the Half-life in series [1] (beta emitters) was 2.68 days. The Maximum particle energy in series [1] is given as 2.27 MeV.

On to `O=P([O-])([O-])O.[Na+].[Na+]` [disodium hydrogen phosphate], for which the “Formation of a precipitate” value in series [2] is reported as “heavy visible precipitate”.

For the molecule `[153Sm]` [samarium-153], the Half-life in series [1] (beta emitters) is 1.96 days. Also, the Maximum particle energy in series [1] is on record as 0.7 (>50%) MeV.

As for `[103Ru]` [ruthenium-103], in series [1] (beta emitters), the Half-life is 40 days. Further, in series [1], the Maximum particle energy is listed as 0.214 MeV.

phosphorus-32: in series [1] (beta emitters), the Half-life entry was “approximately 14 days”. Also, the Maximum particle energy in series [1] is 1.71 MeV.

On to `[131IH]` [iodine-131], for which the Half-life in series [1] (beta emitters) is listed as 8.04 days. In series [1], the Maximum particle energy is 0.61 MeV.

`[89Sr]` [strontium-89]: the Half-life in series [1] (beta emitters) is 51 days. The Maximum particle energy in series [1] is recorded as 1.46 MeV.

Turning to `O=P([O-])(O)O.[Na+]` [sodium dihydrogen phosphate], in series [2], the “Formation of a precipitate” value was “no precipitate was formed”. Also, in series [2] (50 mL sodium dihydrogen phosphate (100 mM) and 5 mL calcium chloride (50 mM)), the “Amount of precipitate formed as a function of sodium hydroxide (0.05 M) added” value was “a precipitate of calcium phosphate begins to form”.

Consider `[125IH]` [iodine-125], for which, in series [1] (electron capture emitters), the Half-life is reported as 60 days and the Particle energy is listed as 0.035 MeV.
